Results reported in patent publication EP3046573B1, “AMYLIN ANALOGUES” (Zealand Pharma A/S, priority 2013, dated 2015).
Numbered stars: 1 amine (or outer) side, 2 acyl side, 3 side chain; on linkers, the order of the positions; unused ones are H or OH. Bridge positions count the residues as written; N and C are the ends. Square brackets hold non-standard residues; d marks the D form. Peptide text beside a SMILES is read from it. * marks the point of attachment. C20 diacid = O=C(O)CCCCCCCCCCCCCCCCCCC(=O)*; γGlu = O=C(O)[C@H](CCC(=O)[*:2])N[*:1]; NMeI = CC[C@H](C)[C@H](NC)C(=O)O; Sar = CNCC(=O)O

Test: Solubility assessment (turbidity absorbance at 325 nm)
Assay type: physicochemical
Conditions: stock 2 mg/ml diluted 1:1, ambient temperature (typically 25°C), n=1
How it was run: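 Peptide stock (2 mg/ml) in water acidified to pH 2.5 with HCl was diluted 1:1 into 100 mM acetate (pH 4.0, 5.0), histidine (pH 6.0, 7.0) or phosphate (pH 6.0, 7.0, 7.5) buffer. A280 and A325 were read at about 25°C, n=1. A325 ≤ 0.02 meant solubility ≥ 1 mg/ml.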

CC[C@H](C)[C@@H](C(=O)N[C@@H](CC(C)C)C(=O)N[C@@H](CO)C(=O)N[C@@H](CO)C(=O)N[C@H](C(=O)N[C@@H](CC(N)=O)C(=O)N[C@H](C(=O)NCC(=O)N[C@@H](CO)C(=O)N[C@@H](CC(N)=O)C(=O)N[C@H](C(=O)N1CCC[C@H]1C(N)=O)[C@@H](C)O)C(C)C)[C@@H](C)O)N(C)C(=O)[C@H](C)NC(=O)CN(C)C(=O)[C@H](Cc1ccccc1)NC(=O)[C@H](CC(N)=O)NC(=O)[C@H](CC(N)=O)NC(=O)[C@H](CO)NC(=O)[C@H](CO)NC(=O)[C@H](Cc1c[nH]cn1)NC(=O)[C@H](Cc1c[nH]cn1)NC(=O)[C@H](CC(C)C)NC(=O)[C@H](Cc1ccccc1)NC(=O)[C@H](CCC(=O)O)NC(=O)[C@H](C)NC(=O)[C@H](CC(C)C)NC(=O)[C@H](CCCNC(=N)N)NC(=O)[C@H](CCC(N)=O)NC(=O)[C@@H](NC(=O)[C@H](C)NC(=O)[C@@H]1CSSC[C@H](NC(=O)[C@H](CCCNC(=N)N)NC(=O)CC[C@H](NC(=O)CCCCCCCCCCCCCCCCCCC(=O)O)C(=O)O)C(=O)N[C@@H](CC(N)=O)C(=O)N[C@@H]([C@@H](C)O)C(=O)N[C@@H](C)C(=O)N[C@@H]([C@@H](C)O)C(=O)N1)[C@@H](C)O [Compound 1, [19CD]-isoGlu-RC()NTATC()ATQRLAEFLHHSSNNF-Gly(Me)-A-Ile(Me)-LSSTNVGSNTP-NH2] ({C20 diacid-γGlu}-RCNTATCATQRLAEFLHHSSNNF[Sar]A[NMeI]LSSTNVGSNTP-NH2; disulfide 2-7)
SS (SS indicates solubility ≥ 1mg/ml): Solubility, Acetate buffer pH 4 (100 mM acetate buffer pH 4.0) | Solubility, Acetate buffer pH 5 (100 mM acetate buffer pH 5.0) | Solubility, Histidine buffer pH 6 (100 mM histidine buffer pH 6.0) | Solubility, Histidine buffer pH 7 (100 mM histidine buffer pH 7.0) | Solubility, Phosphate buffer pH 6 (100 mM phosphate buffer pH 6.0) | Solubility, Phosphate buffer pH 7 (100 mM phosphate buffer pH 7.0) | Solubility, Phosphate buffer pH 7.5 (100 mM phosphate buffer pH7.5)
